In patent publication US12280045B2, “Antitumor agent and antitumor effect potentiator” (TAIHO PHARMACEUTICAL CO., LTD., priority 2017, dated 2025):

What was measured:
[1] = tested on: mouse breast cancer cell line EMT6; test: Antitumor effect (tumor volume) in EMT6 breast cancer cell transplant model; format: in vivo
Procedure: EMT6, a mouse breast cancer cell line, was obtained from American Type Culture Collection (ATCC). EMT6 was cultured in Waymouth's MB752/1 medium containing […]. EMT6 was subcultured in a 37° C., 5% CO2 incubator in a 1:3 to 1:5 ratio, one to two times a week.
(§1) A cell suspension as a suspension of EMT6 cells in a 1:1 mixture of PBS and extracellular matrix component Matrigel was prepared, and the suspension, containing 1×10^4 cells/0.1 mL, was transplanted subcutaneously into a BALB/c mouse (Charles River Laboratories Japan Inc.), six weeks of age, in an area around the right last rib.
(§2) The tumor size was measured by measuring the major axis and minor axis of the tumor with a digimatic caliper, and TV was calculated using the following formula. TV (mm^3)=major axis (mm)×minor axis (mm)×minor axis (mm)/2
The animals were divided into groups of 15 using a stratified random grouping method, using TV as an index. The day the grouping was made (N=15) was designated as Day 1.
A methanesulfonic acid salt of compound 1 was pulverized with an agate mortar, and was prepared into a solution having a concentration of 4.2 mg/mL as its free form, using a solvent. The compound was then dissolved by sonication to prepare a 42 mg/kg dosing solution. The dosing solution was orally administered as compound 1, once daily in a dose of 42 mg/kg/day, continuously for 14 days. […]

[2] = tested on: mouse colon cancer cell line MC38; test: Antitumor effect (tumor volume) in MC38 colon cancer cell transplant model; format: in vivo; conditions: for TV, DAY 22 MEAN ± S.E.: N=10
Procedure: MC38, a mouse colon cancer cell line, was provided by Dr. Yoshihiro Hayakawa (University of Toyama, Toyama, Japan). MC38 was cultured in RPMI 1640 medium containing 10% fetal bovine serum (FBS). MC38 was subcultured in a 37° C., 5% CO2 incubator in a 1:3 to 1:5 ratio, one to two times a week.
as §1, with “MC38” for “EMT6”, “phosphate-buffered saline (PBS)” for “PBS”, “1×10^6” for “1×10^4”, “C57BL/6NCrl” for “BALB/c”
as §2
The animals were divided into groups of 10 using a stratified random grouping method, using TV as an index. The day the grouping was made (N=10) was designated as Day 1.
(§3) A methanesulfonic acid salt of compound 1 was pulverized with an agate mortar, and was prepared into a solution having a concentration of 5 mg/mL as its free form, using a solvent. The compound was then dissolved by sonication to prepare a 50 mg/kg dosing solution. The dosing solution was diluted with solvent to prepare a 25 mg/kg dosing solution, and a 12.5 mg/kg dosing solution. These dosing solutions were orally administered as compound 1, once daily in a dose of 12.5 mg/kg/day, 25 mg/kg/day, or 50 mg/kg/day, continuously for 21 days.
(§4) The anti-mouse PD-1 antibody was intraperitoneally administered in a dose of 0.05 mg/body on the first day (Day 1) of administration and on the 8th day since administration was started.
(§5) The medicinal agents shown in Table 1 were administered in the schedules, doses, and dosage forms shown in Table 1 (administered group No. 1 to No. 8).
A Dunnett's test (significance level 0.05) was conducted to analyze Day 22 TV for each group.

[3] = Percentage of body weight change in MC38 colon cancer cell transplant model; format: in vivo, mouse
Procedure: (§6) An electronic balance designed for animals was used for body weight measurement. A percentage of body weight change (BWCn) on day n was calculated from the body weight on day 1 (BW1) and the body weight (BWn) on day n using the following formula. Percentage of body weight change BWCn (%)=(BWn−BW1)/BW1×100
as §3, §4, §5

[4] = tested on: tumor-associated macrophage; test: Fraction of tumor-associated macrophage in TIL, EMT6 breast cancer cell transplant model (flow cytometry); format: in vivo, mouse
Procedure: EMT6, a mouse breast cancer cell line, was obtained from ATCC. EMT6 was cultured in Waymouth's MB752/1 medium containing 15% FBS. EMT6 was subcultured in a 37° C., 5% CO2 incubator in a 1:3 to 1:5 ratio, one to two times a week.
as §1
After 4 days from transplantation, the animals were divided into groups of 5 using a stratified random grouping method, using body weight as an index. The day the grouping was made (N=5) was designated as Day 1.
A methanesulfonic acid salt of compound 1 was pulverized with an agate mortar, and was prepared into a solution having a concentration of 4.2 mg/mL as its free form, using a solvent. […]
The tumor was collected on the 7th day (Day 7) since administration was started, and a tumor suspension was prepared using a digestive enzyme treatment method. […] The isolated TILs were reacted with fluorescence-labeled anti-CD45 antibody, anti-CD90.2 antibody, anti-CD11b antibody, anti-Ly-6G antibody, anti-Ly-6C antibody, and anti-F4/80 antibody, and the fraction of tumor-associated macrophage in TIL was calculated by fluorescence flow cytometry. […]

[5] = Percentage of body weight change in EMT6 breast cancer cell transplant model; format: in vivo, mouse; conditions: Compound 1 42 mg/kg p.o. q.d. Day 1-14 / PBS i.p.
Procedure: as §6
An electronic balance designed for animals was used for body weight measurement. A percentage of body weight change (BWCn) on day n was calculated in the same manner as in Example 1.
A methanesulfonic acid salt of compound 1 was pulverized with an agate mortar, and was prepared into a solution having a concentration of 4.2 mg/mL as its free form, using a solvent. The compound was then dissolved by sonication to prepare a 42 mg/kg dosing solution. The dosing solution was orally administered as compound 1, once daily in a dose of 42 mg/kg/day, continuously for 14 days.
The anti-mouse PD-1 antibody was intraperitoneally administered in a dose of 0.1 mg/body on the first day (Day 1) of administration, and on the 4th day (Day 4), the 8th day (Day 8), and the 11th day (Day 11) since administration was started.
The anti-mouse CTLA-4 antibody was intraperitoneally administered in a dose of 0.5 mg/body on the first day (Day 1) of administration, and after 4 days (Day 4), 8 days (Day 8), and 11 days (Day 11) from administration. […]

[6] = tested on: tumor-associated macrophage; test: Fraction of tumor-associated macrophage in TIL, MC38 colon cancer cell transplant model (flow cytometry); format: in vivo, mouse
Procedure: MC38, a mouse colon cancer cell line, was provided by Dr. Yoshihiro Hayakawa (University of Toyama, Toyama, Japan). MC38 was cultured in RPMI 1640 medium containing 10% FBS. MC38 was subcultured in a 37° C., 5% CO2 incubator in a 1:3 to 1:5 ratio, one to two times a week.
A cell suspension of MC38 cells containing 2×10^6 cells/0.1 mL, was transplanted subcutaneously into a C57BL/6NJJcl mouse (CLEA Japan, Inc.), six weeks of age, in an area around the right last rib.
The tumor size was measured by measuring the major axis and minor axis of the tumor with a digimatic caliper, and TV was calculated using the following formula. TV (mm^3)=major axis (mm)×minor axis (mm)×minor axis (mm)/2 […]
The tumor was collected on the 10th day (Day 10) since administration was started, and a tumor suspension was prepared using a digestive enzyme treatment method. […] The isolated TILs were reacted with fluorescence-labeled anti-CD45 antibody, anti-CD90.2 (T cell marker) antibody, anti-CD11b (myeloid leukocyte marker) antibody, anti-Ly-6G (granulocytic bone marrow-derived suppressor cell marker) antibody, anti-Ly-6C (monocytic bone marrow-derived suppressor cell marker) antibody, and anti-F4/80 (macrophage marker) antibody, and the fraction of tumor-associated macrophage in TIL was calculated by fluorescence flow cytometry. […]

mouse MC38 tumor model = test: Dose finding of compound 1 in mouse MC38 tumor model; format: in vivo; conditions: orally administered once daily for 21 days
Procedure: An experiment was conducted with mouse MC38 tumor model. Tumor cells were cultured in vitro and transplanted subcutaneously into male mice, six weeks of age, in the right chest region, followed by daily administration of compound 1 and a control antibody. […] This dose (oral continuous administration of 50 mg/kg for 21 days, q.d.) is equivalent to the recommended dose of compound 1 in humans when administered alone.

BWC22 MEAN ± S.E. ([3]; Compound 1 12.5 mg/kg p.o. q.d. Day 1-21 / PBS i.p.): 6.1 ± 0.7%
BWC22 MEAN ± S.E. ([3]; Compound 1 25 mg/kg p.o. q.d. Day 1-21 / PBS i.p.): 5.0 ± 0.9%
BWC22 MEAN ± S.E. ([3]; Compound 1 50 mg/kg p.o. q.d. Day 1-21 / PBS i.p.): −0.3 ± 0.9%
BWC15 MEAN ± S.E. [5]: 3.2 ± 1.0%
SMILES: CNC(=O)c1cc2c(Oc3ccc(NC(=S)NC(=O)Cc4ccccc4)cc3F)ccnc2cc1OC [Compound 1, 4-(2-fluoro-4-(3-(2-phenylacetyl)thioureido)phenoxy)-7-methoxy-N-methylquinoline-6-carboxamide]
TV, DAY 15 MEAN ± S.E. ([1]; Compound 1 42 mg/kg p.o. q.d. Day 1-14 / PBS i.p. Day 1, 4, 8, 11, N=15): 312 ± 29 mm^3
Day 15 TV versus control group (No. 1), result in words ([1]; Dunnett's test, significance level 0.05, doses as in Table 3): significantly smaller TVs than control group
TV, DAY 22 MEAN ± S.E. ([2]; Compound 1 12.5 mg/kg p.o. q.d. Day 1-21 / PBS i.p. Day 1, 8): 1007 ± 161 mm^3
TV, DAY 22 MEAN ± S.E. ([2]; Compound 1 25 mg/kg p.o. q.d. Day 1-21 / PBS i.p. Day 1, 8): 763 ± 50 mm^3
TV, DAY 22 MEAN ± S.E. ([2]; Compound 1 50 mg/kg p.o. q.d. Day 1-21 / PBS i.p. Day 1, 8): 437 ± 62 mm^3
Day 22 TV versus control group (No. 1), result in words ([2]; Dunnett's test, significance level 0.05, doses as in Table 1): significantly smaller TVs than control group
Fraction of tumor-associated macrophage MEAN ± S.E. ([4]; Compound 1 42 mg/kg p.o. q.d. Day 1-6, tumor collected Day 7, N=5): 20.3 ± 4.8%
fraction of tumor-associated macrophage versus control group (No. 1), result in words ([4]; Dunnett's test, significance level 0.05, doses as in Table 4): significantly smaller fraction of tumor-associated macrophage than control group
Fraction of tumor-associated macrophage MEAN ± S.E. ([6]; Compound 1 25 mg/kg p.o. q.d. Day 1-9, tumor collected Day 10, N=5): 8.2 ± 2.3%
fraction of tumor-associated macrophage versus control group (No. 1), result in words ([6]; Dunnett's test, significance level 0.05, doses as in Table 2): significantly smaller fractions of tumor-associated macrophage than control group
preferred minimum dose that produces the maximum efficacy in the mouse (mouse MC38 tumor model): 50 mg/kg
